Results reported in PubChem BioAssay (NCI).
Several values for one entry are separate records, joined by “and”; a condition that tells them apart may be missing. Equal values may be shown once.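 Interpolation was linear, between the two tested concentrations surrounding the appropriate level; five concentrations were tested over 48 hours in 96-well plates. GI50 = concentration required for 50% inhibition of growth. TGI: concentration producing complete growth inhibition.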

What was measured:
Assay in all cases: DTP human tumour cell line panel, 48 h
OVCAR-3 ovarian = test system: OVCAR-3 ovarian
SF-295 CNS = test system: SF-295 CNS
TK-10 renal = test system: TK-10 renal
SK-MEL-28 melanoma = test system: SK-MEL-28 melanoma
SNB-75 CNS = test system: SNB-75 CNS
SW-620 colon = test system: SW-620 colon
RPMI-8226 leukemia = test system: RPMI-8226 leukemia
BT-549 breast = test system: BT-549 breast
OVCAR-5 ovarian = test system: OVCAR-5 ovarian
NCI-H226 lung = test system: NCI-H226 lung

| SMILES | TGI (OVCAR-3 ovarian) | TGI (SF-295 CNS) | TGI (TK-10 renal) | TGI (SK-MEL-28 melanoma) | TGI (SNB-75 CNS) | TGI (SW-620 colon) | TGI (RPMI-8226 leukemia) | GI50 (SF-295 CNS) | GI50 (SK-MEL-28 melanoma) | GI50 (SNB-75 CNS) | TGI (BT-549 breast) | GI50 (OVCAR-5 ovarian) | TGI (OVCAR-5 ovarian) | TGI (NCI-H226 lung) | GI50 (OVCAR-3 ovarian) | GI50 (TK-10 renal) [µM] | GI50 (BT-549 breast) | GI50 (SW-620 colon) | GI50 (RPMI-8226 leukemia) | GI50 (NCI-H226 lung) |
| --- | --- | --- | --- | --- | --- | --- | --- | --- | --- | --- | --- | --- | --- | --- | --- | --- | --- | --- | --- | --- |
| CCOC1=C2C(=O)OC(=O)C2C2CCCCC2=C1 (stereo unspecified) | > 100 µM | > 100 µM | > 100 µM | > 100 µM | > 100 µM | > 100 µM | > 100 µM |  |  |  |  |  |  |  |  |  |  |  |  |  |
| C#CC1(O)C(COP(=O)(O)OC(COCCCCCCCCCCCCCCCCCC)COP(=O)(O)OCC2OC(n3cc(F)c(=O)[nH]c3=O)CC2O)OC(n2ccc(N)nc2=O)C1O (stereo unspecified) | > 29.1 µM and 23.4 µM |  | 9.09 µM and 3.83 µM | 21.8 µM and 28.8 µM | 18.7 µM and 30.2 µM | > 100 µM and 48.1 µM |  | < 21 nM and 44.1 nM | 618 nM and 1490 nM | 343 nM and 975 nM | > 42.8 µM and 8.71 µM | 1040 nM and 2990 nM | > 46.2 µM and 68.6 µM | 23.5 µM and 26 µM |  |  |  |  |  |  |
| Cc1oc2c(C)c3oc(=O)cc(C)c3cc2c1CN1C(=O)C2OCCOCCOCCOCCOCCO[C@H]2C1=O (stereo partly specified) | > 100 µM | > 100 µM | > 100 µM |  | > 100 µM | > 100 µM | > 100 µM |  |  |  |  |  | > 100 µM | > 100 µM |  |  |  |  |  |  |
| O=C(CC(=O)C1=CNc2ccccc2S1)C(=O)Nc1ccc(Cl)cc1 | > 50 µM | > 50 µM | > 50 µM | > 50 µM | > 50 µM | > 50 µM | > 50 µM |  |  |  |  |  | > 50 µM | > 50 µM |  |  |  |  |  |  |
| COC1OC(CBr)C(OC(=O)c2ccccc2)C(O)C1Br (stereo unspecified) | > 100 µM | > 100 µM | > 100 µM | > 100 µM |  | > 100 µM | > 100 µM |  |  |  |  |  | > 100 µM | > 100 µM |  |  |  |  |  |  |
| OCC(O)C(Cl)CCl (stereo unspecified) | > 100 µM | > 100 µM | > 100 µM | > 100 µM | > 100 µM | > 100 µM |  |  |  |  | > 100 µM |  | > 100 µM | > 100 µM |  |  |  |  |  |  |
| CN1CCN(CCOc2ccc(-c3cnc4c(-c5ccc(C(F)(F)F)cc5)cnn4c3)cc2)CC1 | 2.94 µM | 3.31 µM | 3.24 µM | 3.11 µM | 2.88 µM | 3.27 µM |  | 1750 nM | 1680 nM | 1500 nM | 3.04 µM | 1590 nM | 2.96 µM |  | 1550 nM | 1.72 | 1620 nM | 1760 nM |  |  |
| COc1ccc2c(c1)nnn1c3ncccc3c(N=O)c21 | 5.18 µM and 7.68 µM | 15.3 µM and 32 µM | 19.2 µM | 13.6 µM and 74.4 µM |  |  | 1.44 µM and 7.64 µM | 4690 nM and 6950 nM | 3480 nM and 11400 nM |  | 16.3 µM and 4.68 µM | 8020 nM and 4570 nM | 23.2 µM and > 100 µM | 13.1 µM and 47.7 µM | 1110 nM and 2410 nM | 5.08 | 5060 nM and 1460 nM | 270 nM and 1340 nM | 261 nM and 1080 nM | 4.14 µM and 11.6 µM |
| O=C(O/C(=C(/N=Nc1ccccc1)c1ccccc1)c1ccccc1)c1ccccc1 |  | > 100 µM | > 100 µM | > 100 µM | > 100 µM | > 100 µM | > 100 µM |  |  |  |  |  | > 100 µM | > 100 µM |  |  |  |  |  |  |
| O=c1cc(-c2ccccc2F)[nH]c2ccc(N3CCCC3)cc12 |  |  | > 100 µM | > 100 µM | > 100 µM | > 100 µM |  |  | 82300 nM |  | > 100 µM | 2530 nM | > 100 µM | 0.0215 µM |  | 74.9 |  |  | < 1 nM | < 0.001 µM |
| O=C1C2C3C=C4c5ccccc5N(c5ccccc5)C4(C2C(=O)N1c1ccc(Cl)cc1)[C@H]1C(=O)N(c2ccc(Cl)cc2)C(=O)[C@@H]31 (stereo partly specified) | > 100 µM | > 100 µM | > 100 µM |  | > 100 µM | > 100 µM | > 100 µM |  |  |  |  |  | > 100 µM | > 100 µM |  |  |  |  |  |  |
| COCC(O)Cn1ccnc1[N+](=O)[O-] (stereo unspecified) | > 100 µM | > 100 µM | > 100 µM | > 100 µM |  | > 100 µM | > 100 µM |  |  |  |  |  | > 100 µM | > 100 µM |  |  |  |  |  |  |
| COc1ccc(/C=C/C(=O)c2ccc(O)c(CN3CCN(c4cc5c(cc4F)c(=O)c(C(=O)O)cn5C4CC4)CC3)c2)cc1 | > 100 µM | > 100 µM | 74.6 µM | > 100 µM | 6.86 µM | > 100 µM |  | 2100 nM | 1720 nM | 726 nM | > 100 µM | 4610 nM | > 100 µM | > 100 µM | 1970 nM | 7.16 | 1280 nM | 1380 nM |  | 3.75 µM |
| NC(=O)c1ccccc1Nc1ccc2nnc(-c3ccncc3)n2n1 | 26.6 µM |  | 20.7 µM | 29.8 µM | 26.5 µM | 19.1 µM | 17.4 µM |  | 15300 nM | 13600 nM | 3.83 µM | 15400 nM | 29.8 µM | 44.4 µM | 13700 nM | 6.81 | 1900 nM | 5600 nM | 3430 nM | 15 µM |
| CCn1cc(C(=O)N/N=C/c2ccccc2)c(=O)c2cc(F)c(N3CCNC(C)C3)c(F)c21 (stereo unspecified) | 3.3 µM | 3.35 µM | 3.24 µM | 3.19 µM |  | 3.31 µM |  | 1830 nM | 1780 nM |  | 3 µM | 1640 nM | 3.05 µM |  | 1820 nM | 1.71 | 1600 nM | 1760 nM |  |  |
| Cc1ccc(SSc2ccc(C)cc2C(=O)O)c(C(=O)O)c1 |  | > 100 µM | > 100 µM | > 100 µM |  | > 100 µM |  |  |  |  |  |  | > 100 µM | > 100 µM |  |  |  |  |  |  |
| C1=CC=C2NCCCCCCCNC3=CC=CC=CC3=NCCCCCCCN=C2C=C1 |  | > 100 µM |  |  | 67.9 µM | > 100 µM | > 100 µM |  |  |  |  |  | > 100 µM | > 100 µM |  |  |  |  |  |  |
| COc1ccc(-c2nc(/C=N/Nc3cc(C)nc4ccc(Cl)cc34)c(C)o2)cc1 | 3.27 µM | 3.31 µM | 3.3 µM | 3.24 µM | 2.93 µM | 3.2 µM |  | 1820 nM | 1800 nM | 1440 nM | 4.28 µM | 1680 nM | 3.07 µM | 5.14 µM | 1810 nM | 1.83 | 1950 nM | 1600 nM |  | 2.35 µM |
| O=c1[nH]nc2ccccc2c1Cc1ccccc1 | > 100 µM | > 100 µM | > 100 µM | > 100 µM | > 100 µM | > 100 µM | > 100 µM |  |  |  |  |  | > 100 µM | > 100 µM |  |  |  |  |  |  |
